The values that follow come from patent publication US20250250230A1, “HETEROCYCLIC COMPOUND” (TAKEDA PHARMACEUTICAL COMPANY LIMITED, priority 2022, published 2025).

In this assay the target is T1, human orexin type 2 receptor (Homo sapiens, UniProt O43614).
T1 construct: expressed in transfected cells
T1 sequence (O43614 1-444): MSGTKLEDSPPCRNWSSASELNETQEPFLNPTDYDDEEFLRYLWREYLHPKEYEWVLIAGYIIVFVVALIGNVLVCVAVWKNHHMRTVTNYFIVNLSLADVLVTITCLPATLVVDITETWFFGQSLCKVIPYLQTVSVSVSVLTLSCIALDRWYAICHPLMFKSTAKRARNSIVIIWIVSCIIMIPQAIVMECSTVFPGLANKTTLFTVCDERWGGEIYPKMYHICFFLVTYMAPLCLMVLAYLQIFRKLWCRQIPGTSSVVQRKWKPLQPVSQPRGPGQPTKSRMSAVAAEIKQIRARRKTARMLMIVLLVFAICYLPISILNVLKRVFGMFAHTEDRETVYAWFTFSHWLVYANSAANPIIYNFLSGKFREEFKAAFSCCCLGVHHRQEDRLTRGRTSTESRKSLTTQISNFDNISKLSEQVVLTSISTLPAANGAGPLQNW
Put plainly: Measurement of orexin type 2 receptor agonist activity (calcium fluorescence, Fluo-4 AM, FDSS). In kind it is cell-based. As to conditions: test compound 3 μM; CHO cells expressing human OX2 receptor; DMSO = 0%, orexin A (human) = 100%. Put shortly: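 CHO-K1 cells stably expressing human OX2R were loaded with Fluo-4 AM (30 min 37 °C, 30 min RT) in HEPES-buffered HBSS with 0.1% BSA and probenecid. Calcium fluorescence was followed on FDSS for 2 min after compound addition; activity normalised to DMSO (0%) and 10 nM orexin A (100%).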

Turning to `CS(=O)(=O)NCC1CCN(C(=O)C2CC2c2ccccc2-c2c(F)cccc2F)C1` (racemic) [Example 40, a mixture of rac-N-({(3R)-1-[(1R,2R)-2-(2′,6′-difluoro[1,1′-biphenyl]-2-yl)cyclopropane-1-carbonyl]pyrrolidin-3-yl}methyl)methanesulfonamide and rac-N-({(3S)-1-[(1R,2R)-2-(2′,6′-difluoro[1,1′-biphenyl]-2-yl)cyclopropane-1-carbonyl]pyrrolidin-3-yl}methyl)methanesulfonamide], the “OX2R agonist activity (3 μM, %)” value amounted to 77%. With `CS(=O)(=O)NC1CCCCN(C(=O)C2CC2c2ccccc2-c2c(F)cccc2F)C1` (racemic) [Example 41, a mixture of rac-N-{(3R)-1-[(1R,2R)-2-(2′,6′-difluoro[1,1′-biphenyl]-2-yl)cyclopropane-1-carbonyl]azepan-3-yl}methanesulfonamide and rac-N-{(3S)-1-[(1R,2R)-2-(2′,6′-difluoro[1,1′-biphenyl]-2-yl)cyclopropane-1-carbonyl]azepan-3-yl}methanesulfonamide], the “OX2R agonist activity (3 μM, %)” value is 97%. Next, `CS(=O)(=O)NC1CCCN(C(=O)C2CC2c2ccccc2-c2ccccc2Cl)CC1` (racemic) [Example 43, a mixture of rac-N-{(4R)-1-[(1R,2R)-2-(2′-chloro[1,1′-biphenyl]-2-yl)cyclopropane-1-carbonyl]azepan-4-yl}methanesulfonamide and rac-N-{(4S)-1-[(1R,2R)-2-(2′-chloro[1,1′-biphenyl]-2-yl)cyclopropane-1-carbonyl]azepan-4-yl}methanesulfonamide]: 92%. With `CS(=O)(=O)NC1CCCN(C(=O)C2CC2c2ccccc2-c2cc(F)ccc2F)CC1` (racemic) [Example 51, a mixture of rac-N-{(4R)-1-[(1R,2R)-2-(2′,5′-difluoro[1,1′-biphenyl]-2-yl)cyclopropane-1-carbonyl]azepan-4-yl}methanesulfonamide and rac-N-{(4S)-1-[(1R,2R)-2-(2′,5′-difluoro[1,1′-biphenyl]-2-yl)cyclopropane-1-carbonyl]azepan-4-yl}methanesulfonamide] the figure was 75%. With `Cc1ccccc1-c1ccccc1C1CC1C(=O)N1CCCC(NS(C)(=O)=O)CC1` (racemic) [Example 52, a mixture of rac-N-{(4R)-1-[(1R,2R)-2-(2′-methyl[1,1′-biphenyl]-2-yl)cyclopropane-1-carbonyl]azepan-4-yl}methanesulfonamide and rac-N-{(4S)-1-[(1R,2R)-2-(2′-methyl[1,1′-biphenyl]-2-yl)cyclopropane-1-carbonyl]azepan-4-yl}methanesulfonamide] the figure was 65%. In the case of `CS(=O)(=O)NC1CCCN(C(=O)C2CC2c2ccccc2-c2cccc(F)c2F)CC1` (racemic) [Example 54, a mixture of rac-N-{(4R)-1-[(1R,2R)-2-(2′,3′-difluoro[1,1′-biphenyl]-2-yl)cyclopropane-1-carbonyl]azepan-4-yl}methanesulfonamide and rac-N-{(4S)-1-[(1R,2R)-2-(2′,3′-difluoro[1,1′-biphenyl]-2-yl)cyclopropane-1-carbonyl]azepan-4-yl}methanesulfonamide], the “OX2R agonist activity (3 μM, %)” value is listed as 79%. With `CS(=O)(=O)NC1CCCN(C(=O)C2CC2c2ccccc2-c2ccc(F)cc2F)CC1` (racemic) [Example 56, a mixture of rac-N-{(4R)-1-[(1R,2R)-2-(2′,4′-difluoro[1,1′-biphenyl]-2-yl)cyclopropane-1-carbonyl]azepan-4-yl}methanesulfonamide and rac-N-{(4S)-1-[(1R,2R)-2-(2′,4′-difluoro[1,1′-biphenyl]-2-yl)cyclopropane-1-carbonyl]azepan-4-yl}methanesulfonamide] the figure was 85%; with `CS(=O)(=O)NC1CCCN(C(=O)C2CC2c2ccccc2-c2ccccc2F)CC1` (racemic) [Example 59, a mixture of rac-N-{(4R)-1-[(1R,2R)-2-(2′-fluoro[1,1′-biphenyl]-2-yl)cyclopropane-1-carbonyl]azepan-4-yl}methanesulfonamide and rac-N-{(4S)-1-[(1R,2R)-2-(2′-fluoro[1,1′-biphenyl]-2-yl)cyclopropane-1-carbonyl]azepan-4-yl}methanesulfonamide], 80%.

Take `CS(=O)(=O)NC1CCCN(C(=O)C2CC2c2ccccc2-c2cc(F)ccc2F)C1` (racemic) [Example 65, a mixture of rac-N-{(3R)-1-[(1R,2R)-2-(2′,5′-difluoro[1,1′-biphenyl]-2-yl)cyclopropane-1-carbonyl]piperidin-3-yl}methanesulfonamide and rac-N-{(3S)-1-[(1R,2R)-2-(2′,5′-difluoro[1,1′-biphenyl]-2-yl)cyclopropane-1-carbonyl]piperidin-3-yl}methanesulfonamide]: the “OX2R agonist activity (3 μM, %)” value came out at 83%. Next, `Cc1ccccc1-c1ccccc1C1CC1C(=O)N1CCCC(NS(C)(=O)=O)C1` (racemic) [Example 66, a mixture of rac-N-{(3R)-1-[(1R,2R)-2-(2′-methyl[1,1′-biphenyl]-2-yl)cyclopropane-1-carbonyl]piperidin-3-yl}methanesulfonamide and rac-N-{(3S)-1-[(1R,2R)-2-(2′-methyl[1,1′-biphenyl]-2-yl)cyclopropane-1-carbonyl]piperidin-3-yl}methanesulfonamide]: 52%; `CS(=O)(=O)NC1CCCN(C(=O)C2CC2c2ccccc2-c2cccc(F)c2F)C1` (racemic) [Example 67, a mixture of rac-N-{(3R)-1-[(1R,2R)-2-(2′,3′-difluoro[1,1′-biphenyl]-2-yl)cyclopropane-1-carbonyl]piperidin-3-yl}methanesulfonamide and rac-N-{(3S)-1-[(1R,2R)-2-(2′,3′-difluoro[1,1′-biphenyl]-2-yl)cyclopropane-1-carbonyl]piperidin-3-yl}methanesulfonamide]: 89%; `CS(=O)(=O)NC1CCCN(C(=O)C2CC2c2ccccc2-c2ccc(F)cc2F)C1` (racemic) [Example 68, a mixture of rac-N-{(3R)-1-[(1R,2R)-2-(2′,4′-difluoro[1,1′-biphenyl]-2-yl)cyclopropane-1-carbonyl]piperidin-3-yl}methanesulfonamide and rac-N-{(3S)-1-[(1R,2R)-2-(2′,4′-difluoro[1,1′-biphenyl]-2-yl)cyclopropane-1-carbonyl]piperidin-3-yl}methanesulfonamide]: 85%.

With `CS(=O)(=O)NC1CCCN(C(=O)C2CC2c2ccccc2-c2ccccc2F)C1` (racemic) [Example 72, a mixture of rac-N-{(3R)-1-[(1R,2R)-2-(2′-fluoro[1,1′-biphenyl]-2-yl)cyclopropane-1-carbonyl]piperidin-3-yl}methanesulfonamide and rac-N-{(3S)-1-[(1R,2R)-2-(2′-fluoro[1,1′-biphenyl]-2-yl)cyclopropane-1-carbonyl]piperidin-3-yl}methanesulfonamide], the “OX2R agonist activity (3 μM, %)” value amounted to 81%. With `CS(=O)(=O)NC1CCCN(C(=O)C2CC2c2ccccc2-c2ccccc2Cl)C1` (racemic) [Example 74, a mixture of rac-N-{(3R)-1-[(1R,2R)-2-(2′-chloro[1,1′-biphenyl]-2-yl)cyclopropane-1-carbonyl]piperidin-3-yl}methanesulfonamide and rac-N-{(3S)-1-[(1R,2R)-2-(2′-chloro[1,1′-biphenyl]-2-yl)cyclopropane-1-carbonyl]piperidin-3-yl}methanesulfonamide], the “OX2R agonist activity (3 μM, %)” value is 84%. With `CS(=O)(=O)NC1CCN(C(=O)C2CC2c2ccccc2-c2cc(F)ccc2F)C1` (racemic) [Example 80, a mixture of rac-N-{(3R)-1-[(1R,2R)-2-(2′,5′-difluoro[1,1′-biphenyl]-2-yl)cyclopropane-1-carbonyl]pyrrolidin-3-yl}methanesulfonamide and rac-N-{(3S)-1-[(1R,2R)-2-(2′,5′-difluoro[1,1′-biphenyl]-2-yl)cyclopropane-1-carbonyl]pyrrolidin-3-yl}methanesulfonamide] the figure was 66%.

In the case of `CS(=O)(=O)NC1CCN(C(=O)C2CC2c2ccccc2-c2cccc(F)c2F)C1` (racemic) [Example 81, a mixture of rac-N-{(3R)-1-[(1R,2R)-2-(2′,3′-difluoro[1,1′-biphenyl]-2-yl)cyclopropane-1-carbonyl]pyrrolidin-3-yl}methanesulfonamide and rac-N-{(3S)-1-[(1R,2R)-2-(2′,3′-difluoro[1,1′-biphenyl]-2-yl)cyclopropane-1-carbonyl]pyrrolidin-3-yl}methanesulfonamide], the “OX2R agonist activity (3 μM, %)” value worked out at 70%. With `CS(=O)(=O)NC1CCN(C(=O)C2CC2c2ccccc2-c2ccccc2Cl)C1` (racemic) [Example 85, a mixture of rac-N-{(3R)-1-[(1R,2R)-2-(2′-chloro[1,1′-biphenyl]-2-yl)cyclopropane-1-carbonyl]pyrrolidin-3-yl}methanesulfonamide and rac-N-{(3S)-1-[(1R,2R)-2-(2′-chloro[1,1′-biphenyl]-2-yl)cyclopropane-1-carbonyl]pyrrolidin-3-yl}methanesulfonamide] the figure was 68%.
